The source of these data is patent publication US4254285A, “1-Hydroxymethyl-1-1-oxo prostane derivatives of the E and F series” (American Cyanamid Company, priority 1979, dated 1981).

Holding throughout (format): in vivo
The subject of assay [1] is stress-induced (immersion) ulcers. In words: Restraint--Immersion Stress Ulcers in the Rat (Wilson). On the procedure: Male "Sprague--Dawley Derived" rats (Locke--Erickson Laboratories, Maywood, Illinois) weighing 150 to 200 g, are fasted, and provided drinking water for 16 to 19 hours prior to the start of the study. At 0 time the rats are dosed orally with compound or vehicle, (approximately 0.5 ml) and then secured in a Bollman-type restraining cage. Five minutes after dosing, the animals are immersed (tail downward) to "shoulder level" into a 22° C. water bath for 100 minutes. At the end of this period, the animals are decapitated and their stomachs promptly excised with about 5 mm each of esophagus and duodenum.
With a blunt tipped scissor the stomach is opened along the greater curvature, starting at the tip of the rumen through the glandular mucosa into the pylorus and opening the bit of duodenum along its amesenteric border. Debris is removed from stomach by rinsing in saline at room temperature and gently blotting it with gauze or filter paper. The stomach is then spread out, mucosal surface upward on a 3×5 file card or similar material.
With an illuminated magnifier the lesions are counted (for total lesion count) and scored (for weighted score) after the method described by G. Osterloh, et al., Arzneimittel-Forschung, 16 (8a):901910, August 1966. The score for each lesion is given in the following table, modified from the paper.
Very large (area) non-perforating lesions are frequently seen. These are measured as so many 3 mm diameter ulcers and scored as multiples of #7.
Rats were dosed by gavage with compound or vehicle and submerged into a
22° C. water bath for 100 minutes. At the end of this period,
animals were sacrificed and their stomachs removed and scored for ulcers.

Assay [2] relates to bronchospasms elicited by acetylcholine. In words: Bronchodilator Activity (Konzett Assay), acetylcholine. The following applies: Cavia porcellus; guinea pig, intravenous, spasmogen acetylcholine, three logarithmic cumulative doses; read-out: ED50. The method, then: (§1) The bronchodilator activity of some of the PGE compounds of this invention is determined in guinea pigs against bronchospasms elicited by intravenous injections of 5-hydroxytryptamine, histamine or acetylcholine by the Konzett procedure. [See J. Lulling, P. Lievens, F. El Sayed and J. Prignot, Arzneimittel-Forschung, 18, 995 (1968)].
(§2) In the Table B which follows, bronchodilator activity for representative compounds of this invention against one or more of the three spasmogenic agents is expressed as an ED50 determined from the results obtained with three logarithmic cumulative intravenous doses.

Assay [3] relates to bronchospasms elicited by histamine. In words: Bronchodilator Activity (Konzett Assay), histamine. The following applies: Cavia porcellus; guinea pig, intravenous, spasmogen histamine, three logarithmic cumulative doses; read-out: ED50. The method, then:
as §1, §2

Assay [4] relates to continuous respiratory spasm induced by pilocarpine. In words: Bronchodilator Activity (Pilocarpine Assay). The following applies: Canis lupus familiaris, inhaled or nasal, dog, aerosol, 3.2 mg/ml. On the procedure: The PGE compounds of this invention also have bronchodilator activity as determined in a test using dogs anesthetized, artificially ventilated and submitted to a continuous respiratory spasm induced by pilocarpine. Mongrel dogs of either sex weighing between 5 and 10 kg are used. They are premedicated with morphine HCl by subcutaneous injection at 1.5 mg/Kg. An intravenous perfusion of 5% (W/V) chloralose is started 1/2 hour after the morphine injection in such a way that 60 mg/Kg are administered within 15 minutes. After completion, a continuous perfusion of 10 mg/Kg hour is maintained throughout the experiment. The dogs are artificially ventilated by means of a Starling pump at a rate of 20 breaths/minute. The volume is adjusted according to the weight of the animal. [Kleinman and Radford, J. Appl. Physiol., 19, 360 (1964)]. All the measurements are made with the dogs positioned supine in a heated, V-shaped table. Curarization is obtained by succinylcholine chloride using a starting injection of 3 mg/Kg lasting 3 minutes, followed by a continuous perfusion of 0.1 mg/Kg/minute. The respiratory spasm is induced by a starting injection of 400 mcg/Kg of pilocarpine HCl lasting 5 minutes. An increase or decrease in the dose of pilocarpine HCl may occur as a function of the observed effect on airway's resistance. A 15 minute delay is observed before the start of a continuous perfusion of pilocarpine HCl at a dose of 4 mcg/Kg/minute to maintain a constant spasm during the test. A metallic cannula is inserted and fixed, after tracheotomy, into the upper part of the trachea. The two cephalic veins and the two femoral veins are catheterized to inject the various agents. The femoral artery is catheterized to measure the systemic blood pressure. An esophageal balloon (11 cm×2.5 cm) is inserted into the lower third of the oesophagus to measure the endothoracic pressure. The measurement of air flow is made with a […] pneumotachograph connected to the tracheal tube. The transpulmonary pressure is measured as follows: The tracheal cannula is equipped with a stainless steel axial tube (1.5 mm) which is closed at its distal end and projected 2.5 cm beyond the end of the cannula. Three holes with a diameter of one mm are pierced on this latter segment. This tube, which is used to measure the tracheal pressure, is connected to one of the two chambers of a Sanborn 267 B/C differential transducer. The other chamber is connected to the esophageal balloon by means of a polyethylene catheter of the same length and characteristics as the balloon's. The airway's resistance, expressed in cm of water/liter/second, is measured by subtracting from the electrical equivalent of the transpulmonary pressure, a voltage proportional to the flow so as to synchronize the pressure and volume signals on the oscilloscope [Mead and Whittenberger, J. Appl. Physiol, 5, 779 (1953)]. The test compounds are administered by an Aerosol® route. The micronebulizer of a Bird Mark 7 respirator is fitted on the metallic cannula just after the pneumotachograph. The "puff" of the test compound, in Aerosol® is driven by a 2 Kg/cm^2 pressure, allowed into the micronebulizer just during one inspiration cycle. The micronebulizer is fitted on the respiratory tube only during the "puff". It is weighed just before and just after administration to determine the amount of test compound administered.

The next assay has as its system gastric acid secretion. In words: Gastric Acid Secretion in the Dog Fistula. The following applies: 10 μg/kg I.G.; for cumulative two-hour gastric secretion, acid: n = 6, control 17.2 ± 1.6; for cumulative two-hour gastric secretion, volume: n = 6, control 130 ± 11. The method, then:
Three mongrel dogs (20-32 kg) were surgically prepared with stainless steel cannulae. These were inserted into the most dependent portion of the ventral stomach and exteriorized through the abdomen for the collection of gastric secretions. The dogs were trained to stand quietly in a Pavlov support and were conscious during subsequent secretory studies.
^a After a 26hour fast, gastric acid secretion was submaximally
stimulated, beginning 45 minutes after treatment, using a constant
intravenous infusion of histamine acid phosphate ([…]).
^b Each of three dogs was treated six to seven times with vehicle
(control) and one to three times with each compound; n is the number of
experiments conducted with each treatment.
^c Total secretion from 45-120 minutes following intragastric (I.G.)
administration of drugs or vehicle. Mean effects of treatment were
compared to control means by Student's t test. Compound A is […]

Assay [5] concerns bronchospasms elicited by 5-hydroxytryptamine. In words: Bronchodilator Activity (Konzett Assay), 5-hydroxytryptamine. The following applies: Cavia porcellus; guinea pig, intravenous, spasmogen 5-hydroxytryptamine, three logarithmic cumulative doses; read-out: ED50. The method, then: as §1, §2
Setting [6] is: 5 min, 5 min. after drug administration.
Where [7] appears, read: 0.5 h, 30 min. after drug administration.
Where [8] appears, read: 1 h, 60 min. after drug administration.

`CCCCC(C)(O)CC=CC1C(O)CC(=O)C1CCCCCCC(=O)CO` (centres unmarked): the “% Reduction of ulcer score” value in assay [1] (3 mg/Kg P.O.) is reported as 62%; in assay [1] (16 mg/Kg P.O.), 85%; in assay [1] (80 mg/Kg P.O.), 82%; in assay [1] (200 mg/Kg P.O.), 67%; in assay [1] (500 mg/Kg P.O.), 82%. Moreover, the values for the ED50 in assay [2], in assay [3] and in assay [5] were 4.7 µg/kg, 0.943 µg/kg and 3 µg/kg, respectively. Further, the figures for the inhibition at 3200 µg/mL in assay [4] (setting [6]), in assay [4] (setting [7]) and in assay [4] (setting [8]) were 90%, 70% and 45%, respectively. Moreover, the “cumulative two-hour gastric secretion, acid” value in the assay with gastric acid secretion is given as 6.9 ± 2.8 mEq H^+. Moreover, the “cumulative two-hour gastric secretion, volume” value with gastric acid secretion was 59 ± 19 mL.

Consider `CCCCC(C)(O)CC=CC1C(O)CC(=O)C1CC=CCCCC(=O)CO` (stereo not drawn) [1,9-dioxo-11α,16-dihydroxy-16-methyl-1-hydroxymethyl-5-cis-13-trans-prostadiene], for which the entries for the “% Reduction of ulcer score” value in assay [1] (200 mg/Kg P.O.) and in assay [1] (500 mg/Kg P.O.) were 85% and 95%, respectively. Also, the figures for the ED50 in assay [2], in assay [3] and in assay [5] were 6.4 µg/kg, 3 µg/kg and 3.81 µg/kg, respectively. The inhibition at 3200 µg/mL in assay [4] (setting [6]) worked out at 90%; in assay [4] (setting [7]), 90%; in assay [4] (setting [8]), 70%. For the same compound, the “cumulative two-hour gastric secretion, acid” value in the assay with gastric acid secretion is 7.5 ± 2.1 mEq H^+. For the same compound, the “cumulative two-hour gastric secretion, volume” value in the assay with gastric acid secretion is 76 ± 16 mL.

A word on the ED50: it is the midpoint of the dose-response relation. For orientation: inhibition means the drop in the measured response relative to a control, in per cent. Read a low inhibition as little suppression.
